Values after ≈ are worked out from the molar mass of the structure shown.
Experiments:
C. albicans (ATCC 10231) [1] = assay: Inhibition zone, paper disk/agar diffusion; type: cell-based; details: Na = no activity
Outline: (§1)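 Activity was tested by the agar plate diffusion method. The read-out is the diameter (mm) of the inhibition zone around each tested derivative, with norfloxacin as the positive control.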

E. coli ATCC 25922 [2] = assay: Inhibition zone, paper disk/agar diffusion; type: cell-based; details: E. coli; Na = no activity
Outline: as §1

E. faecalis ATCC 29212 [3] = assay: Inhibition zone, paper disk/agar diffusion; type: cell-based; details: E. faecalis; Na = no activity
Outline: as §1

[4] = system: F. oxysporum (RCMB 008002); assay: Inhibition zone, paper disk/agar diffusion; type: cell-based; details: Na = no activity
Outline: as §1

S. aureus ATCC 29213 [5] = assay: Inhibition zone, paper disk/agar diffusion; type: cell-based; details: S. aureus; Na = no activity
Outline: as §1

S. typhi ATCC 6539 = assay: Inhibition zone, paper disk/agar diffusion; type: cell-based; details: S. typhi; Na = no activity
Outline: as §1

B. subtilis ATCC 6633 = assay: MIC and MBC determination; type: cell-based; details: Bacillus subtilis, ATCC6633, B. subtilis
S. aureus ATCC 29213 [6] = assay: MIC and MBC determination; type: cell-based; details: Staphylococcus aureus, ATCC29213, S. aureus
E. faecalis ATCC 29212 [7] = assay: MIC and MBC determination; type: cell-based; details: Enterococcus faecalis, ATCC29212, E. faecalis
E. coli ATCC 25922 [8] = assay: MIC and MBC determination; type: cell-based; details: Escherichia coli, ATCC25922, E. coli
P. aeruginosa ATCC 27853 = assay: MIC and MBC determination; type: cell-based; details: Pseudomonas aeruginosa, ATCC27853, P. aeruginosa
[9] = system: Salmonella typhi (S. typhi ATCC 6539); assay: microbe, parasite or virus in culture; type: cell-based; details: Salmonella enterica, Salmonella typhi
C. albicans (ATCC 10231) [10] = assay: MIC and MFC determination; type: cell-based
[11] = system: F. oxysporum (RCMB 008002); assay: MIC and MFC determination; type: cell-based
E. coli ATCC BAA-196 [12] = assay: Inhibition zone against multidrug-resistant bacteria; type: cell-based; details: MDRB E. coli ATCC BAA-196
Excerpt: (§2) Norfloxacin was used as a positive control for the multidrug resistance study.
(§3) The antimicrobial activity performed at the bacteriology laboratory, Botany and Microbiology Department, Faculty of Science, Al-Azhar University, Cairo, Egypt. The inhibition zone (IZ) of the tested derivatives expressed as the diameter (mm) according to the agar plate diffusion method.

[13] = system: P. aeruginosa ATCC BAA-2111; assay: as above; type: cell-based; details: MDRB P. aeruginosa ATCC BAA-2111
Excerpt: as §2, §3

S. aureus ATCC 33591 [14] = assay: as above; type: cell-based; details: MDRB S. aureus ATCC 33591
Excerpt: as §2, §3

S. aureus ATCC 43300 [15] = assay: as above; type: cell-based; details: MDRB S. aureus ATCC 43300
Excerpt: as §2, §3

E. coli ATCC BAA-196 [16] = assay: MIC and MBC against multidrug-resistant strains; type: cell-based; details: Escherichia coli, ATCCBAA196
Excerpt: as §2
(§4) The experiment was repeating for three-times.

[17] = system: P. aeruginosa ATCC BAA-2111; assay: MIC and MBC against multidrug-resistant strains; type: cell-based; details: Pseudomonas aeruginosa, ATCCBAA2111
Excerpt: as §2, §4

S. aureus ATCC 33591 [18] = assay: MIC and MBC against multidrug-resistant strains; type: cell-based; details: Staphylococcus aureus, ATCC33591
Excerpt: as §2, §4

S. aureus ATCC 43300 [19] = assay: MIC and MBC against multidrug-resistant strains; type: cell-based; details: Staphylococcus aureus, ATCC43300
Excerpt: as §2, §4

S. aureus DNA gyrase = S. aureus DNA gyrase (Staphylococcus aureus, UniProt P0A0K8+P20831); assay: In vitro DNA gyrase supercoiling enzymatic assay; type: biochemical
[20] = biological target: E. coli DHFR (dihydrofolate reductase) (Escherichia coli, UniProt P0ABQ4); assay: In vitro DHFR enzymatic assay; type: biochemical
neutrophils = assay: In vitro intracellular killing, nitro blue tetrazolium (NBT) reduction assay; type: cell-based
Procedure: One of the broad methods used for determining immune disorders for patients in hospitals is the NBT test to measure their immune responses. The reduction in NBT dye provides information about the phagocytic and intracellular killing functions of neutrophils, which are important for microbiocidal activity. The most promising derivatives (2a, 2b, 2d, 3a, 8, and 11) were evaluated against in vitro intracellular killing activities using a nitro blue tetrazolium (NBT) reduction assay and the obtained results expressed in percentage (%): increasing the percentage led to an improvement in the killing ability of the neutrophils used as innate immunity.
In vitro intracellular killing activities for the most promising six derivatives 2a, 2b, 2d, 3a, 8, and 11 were performed according to reported methods.

S. aureus DNA gyrase, sequence (P20831 whole entry): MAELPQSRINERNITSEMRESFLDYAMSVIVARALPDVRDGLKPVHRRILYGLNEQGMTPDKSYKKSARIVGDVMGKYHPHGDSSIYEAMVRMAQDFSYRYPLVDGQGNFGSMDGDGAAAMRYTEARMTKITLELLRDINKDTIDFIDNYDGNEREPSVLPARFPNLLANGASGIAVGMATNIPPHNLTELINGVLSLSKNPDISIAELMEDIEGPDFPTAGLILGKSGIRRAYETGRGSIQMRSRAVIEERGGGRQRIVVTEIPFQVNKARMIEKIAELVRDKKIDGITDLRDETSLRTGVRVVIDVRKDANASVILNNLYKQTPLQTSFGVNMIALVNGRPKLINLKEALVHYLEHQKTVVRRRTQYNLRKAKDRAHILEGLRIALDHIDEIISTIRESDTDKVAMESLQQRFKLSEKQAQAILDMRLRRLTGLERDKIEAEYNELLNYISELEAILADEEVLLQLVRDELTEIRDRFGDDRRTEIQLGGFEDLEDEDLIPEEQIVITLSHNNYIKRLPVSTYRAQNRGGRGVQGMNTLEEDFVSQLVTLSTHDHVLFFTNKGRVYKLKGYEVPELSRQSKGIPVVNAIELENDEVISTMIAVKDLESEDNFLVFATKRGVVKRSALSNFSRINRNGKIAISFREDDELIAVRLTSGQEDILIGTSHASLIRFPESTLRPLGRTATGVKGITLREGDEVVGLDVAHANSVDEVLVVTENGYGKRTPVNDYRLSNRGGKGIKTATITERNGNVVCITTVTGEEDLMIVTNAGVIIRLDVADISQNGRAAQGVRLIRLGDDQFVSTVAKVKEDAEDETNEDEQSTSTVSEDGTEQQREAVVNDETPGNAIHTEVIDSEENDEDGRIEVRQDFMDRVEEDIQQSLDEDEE
S. aureus DNA gyrase, sequence (P0A0K8 whole entry): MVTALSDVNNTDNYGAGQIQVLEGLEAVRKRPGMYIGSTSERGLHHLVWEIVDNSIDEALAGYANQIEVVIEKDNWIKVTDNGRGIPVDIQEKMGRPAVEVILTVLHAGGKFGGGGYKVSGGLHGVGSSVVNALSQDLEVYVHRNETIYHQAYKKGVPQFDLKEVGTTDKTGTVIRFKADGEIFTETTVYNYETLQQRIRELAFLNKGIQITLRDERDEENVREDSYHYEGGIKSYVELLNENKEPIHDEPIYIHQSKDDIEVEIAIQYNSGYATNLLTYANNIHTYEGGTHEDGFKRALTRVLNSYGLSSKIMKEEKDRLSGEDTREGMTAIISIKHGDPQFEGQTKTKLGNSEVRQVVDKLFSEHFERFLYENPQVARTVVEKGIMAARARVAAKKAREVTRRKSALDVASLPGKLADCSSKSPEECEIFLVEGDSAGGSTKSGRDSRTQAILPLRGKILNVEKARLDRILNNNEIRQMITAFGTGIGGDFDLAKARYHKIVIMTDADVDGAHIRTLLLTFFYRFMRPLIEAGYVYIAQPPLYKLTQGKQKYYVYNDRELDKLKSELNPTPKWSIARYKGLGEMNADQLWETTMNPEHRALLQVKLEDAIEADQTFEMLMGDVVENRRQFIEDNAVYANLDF
E. coli DHFR (dihydrofolate reductase), sequence (P0ABQ4 whole entry): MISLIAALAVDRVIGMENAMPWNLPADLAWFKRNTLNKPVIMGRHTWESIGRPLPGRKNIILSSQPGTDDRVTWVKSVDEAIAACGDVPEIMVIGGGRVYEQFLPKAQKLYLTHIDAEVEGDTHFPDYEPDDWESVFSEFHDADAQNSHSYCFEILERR

## N#CC(=Cc1ccc(Cl)cc1)C(=O)Nc1ccc(S(=O)(=O)NC(=N)N)cc1 [Compound 2a, N-(4-(N-Carbamimidoylsulfamoyl)phenyl)-3-(4-chlorophenyl)-2-cyanoacrylamide]
C. albicans (ATCC 10231) [1]
  Mean Diameter of the Inhibition Zone: 25 ± 0.33 mm
E. coli ATCC 25922 [2]
  Mean Diameter of the Inhibition Zone: 26 ± 0.11 mm
E. faecalis ATCC 29212 [3]
  Mean Diameter of the Inhibition Zone: 23 ± 0.65 mm
[4]
  Mean Diameter of the Inhibition Zone: 21 ± 0.16 mm
S. aureus ATCC 29213 [5]
  Mean Diameter of the Inhibition Zone: 25 ± 0.77 mm
S. typhi ATCC 6539
  Mean Diameter of the Inhibition Zone: 23 ± 0.65 mm
B. subtilis ATCC 6633; read-out: MBC
  MBC: 45.8 ± 1.65 µM (≈ 18.5 µg/mL)
B. subtilis ATCC 6633; read-out: MIC
  MIC: 22.9 ± 1.02 µM (≈ 9.25 µg/mL)
S. aureus ATCC 29213 [6]; read-out: MBC
  MBC: 132 ± 1.35 µM (≈ 53.1 µg/mL)
S. aureus ATCC 29213 [6]; read-out: MIC
  MIC: 77.4 ± 2.65 µM (≈ 31.2 µg/mL)
E. faecalis ATCC 29212 [7]; read-out: MBC
  MBC: 38.7 ± 0.65 µM (≈ 15.6 µg/mL)
E. faecalis ATCC 29212 [7]; read-out: MIC
  MIC: 19.3 ± 0.65 µM (≈ 7.81 µg/mL)
E. coli ATCC 25922 [8]; read-out: MBC
  MBC: 90.4 ± 0.98 µM (≈ 36.5 µg/mL)
E. coli ATCC 25922 [8]; read-out: MIC
  MIC: 45.8 ± 0.98 µM (≈ 18.5 µg/mL)
P. aeruginosa ATCC 27853; read-out: MBC
  MBC: 219.9 ± 1.54 µM (≈ 88.8 µg/mL)
P. aeruginosa ATCC 27853; read-out: MIC
  MIC: 137 ± 2.12 µM (≈ 55.5 µg/mL)
[9]; read-out: MBC
  MBC: 139 ± 1.63 µM (≈ 56.2 µg/mL)
[9]; read-out: MIC
  MIC: 77.4 ± 1.06 µM (≈ 31.2 µg/mL)
C. albicans (ATCC 10231) [10]
  MFC/MIC: <2
C. albicans (ATCC 10231) [10]; Candida albicans, ATCC10231, read-out: MFC
  MFC: 103.1 ± 1.02 µM (≈ 41.6 µg/mL)
C. albicans (ATCC 10231) [10]; Candida albicans, ATCC10231, read-out: MIC
  MIC: 77.4 ± 0.85 µM (≈ 31.2 µg/mL)
[11]
  MFC/MIC: <2
[11]; Fusarium oxysporum, RCMB008002, read-out: MFC
  MFC: 217 ± 2.98 µM (≈ 87.5 µg/mL)
[11]; Fusarium oxysporum, RCMB008002, read-out: MIC
  MIC: 138 ± 1.69 µM (≈ 55.5 µg/mL)
E. coli ATCC BAA-196 [12]
  Mean Diameter of Inhibition Zone: 23 ± 0.94 mm
[13]
  Mean Diameter of Inhibition Zone: 24 ± 0.18 mm
S. aureus ATCC 33591 [14]
  Mean Diameter of Inhibition Zone: 25 ± 0.33 mm
S. aureus ATCC 43300 [15]
  Mean Diameter of Inhibition Zone: 23 ± 0.11 mm
E. coli ATCC BAA-196 [16]
  MBC: 29.4 ± 0.65 µM (≈ 11.9 µg/mL)
  MIC: 15.5 ± 0.26 µM (≈ 6.25 µg/mL)
[17]
  MBC: 21.3 ± 0.25 µM (≈ 8.61 µg/mL)
  MIC: 12.9 ± 0.65 µM (≈ 5.2 µg/mL)
S. aureus ATCC 33591 [18]
  MBC: 8.19 ± 0.26 µM (≈ 3.31 µg/mL)
  MIC: 4.82 ± 0.24 µM (≈ 1.95 µg/mL)
S. aureus ATCC 43300 [19]
  MBC: 22 ± 0.65 µM (≈ 8.88 µg/mL)
  MIC: 11 ± 0.25 µM (≈ 4.44 µg/mL)
S. aureus DNA gyrase
  IC50: 23.9 ± 1.22 µM
[20]
  IC50: 5.54 ± 0.33 µM
neutrophils
  Intracellular Killing Activity: 82.8 ± 0.37%

From article PMC7915026, “Sulfaguanidine Hybrid with Some New Pyridine-2-One Derivatives: Design, Synthesis, and Antimicrobial Activity against Multidrug-Resistant Bacteria as Dual DNA Gyrase and DHFR Inhibitors” (Antibiotics, 2021)
